The values that follow come from US20080051413A1, “Nitrophenylpiperazine derivative of xanthine which relaxes tracheal airway and increases respiratory performance” (KAOHSIUNG MEDICAL UNIVERSITY, priority 2006, published 2008).

In test [1] the target is T1, PDE5 purified from human platelets (Homo sapiens, UniProt O76074).
T1 construct: PDE3 and PDE5 purified from human platelets; from tissue; host or cells: human platelets
The test can be described thus: Phosphodiesterase activity, PDE5. Format: biochemical. Conditions: 10 _M compound, n = 3.
Method: The reaction was terminated by boiling for 2 min, and the resulting GMP was converted to adenosine by the addition of 10 mg/ml snake venom nucleotidase, which was followed by a further incubation at 37_ for 10 min. Unhydrolyzed cGMP was bound to AG1-X2 resin, and the remaining [^3H]guanosine in the aqueous phase was quantitated by scintillation counting.

Test [2] has as its system PDE4 purified from human U-937 pronocytic cells. The test can be described thus: Phosphodiesterase activity, PDE4. It is filed as biochemical. The settings on record: 10 _M compound, n = 3. As for the experimental part:
Phosphodiesterase Activity: PDE activity was determined by the method of Nicholson et al. (Nicholson C D, Challiss R A, and Shahid M (1991) Differential modulation of tissue function and therapeutic potential of selective inhibitors of cyclic nucleotide phosphodiesterase isonzymes. Trends Pharmaclo Sci 12:19-27). PDE3 and PDE5 purified from human platelets and PDE4 purified from human U-937 pronocytic cells were used. Test compound (10 _M) or vehicle was incubated with 0.2 _g of enzyme and 1 _M cAMP containing 0.01 _M [^3H]cAMP in Tris buffer, pH 7.5, for 20 min at 25_. The reaction was terminated by boiling for 2 min, and the resulting […] was converted to adenosine by the addition of 10 mg/ml snake venom nucleotidase, which is followed by a further incubation at 37_for 10 min. Unhydrolyzed cAMP was bound to AG1-X2 resin, and the remaining [^3H]adenosine in the aqueous phase was quantitated by scintillation counting.

The next test deals with respiratory performance. As to the kind of experiment: Pulmonary function after i.v. injection (RL, Cdyn, tidal volume). It is filed as in vivo. The settings on record: 1 mg/kg i.v., guinea pig, n = 3. As for the experimental part:
Animals: Male Dunkin Harley guinea pigs (350-450 g) were provide by the National Laboratory Animal Breeding and Research Center (Taipei, Taiwan) and housed under conditions of constant temperature and controlled illumination. Food and water were available and libitum. The study was approved by the Animal Care and Use Committee of the Kaohsiung Medical University.
Pulmonary Function: Guinea pegs (350-450 g) were anesthetized with pentobarbital (40 mg/kg i.p.) and maintained with further i.v. doses of 2 to 5 mg/kg when required according to methods previously described (Wu B N, Lin R J, Lo Y C, Shen K P, Wang C C, Lin Y T, and Chen I J (2004) KMUP-1, a xanthine derivative, induces relaxation of guinea-pig isolated trachea: the role of the epithelium, cyclic nucleotides and K^+ channels, Br J Pharmacol 142:1105-1114). The animal was tethered in a supine position, and the trachea was cannulated below the larynx with a short tracheal cannula via a tracheotomy. Tracheal pressure was measured by a catheter connected to the side arm of the tracheal cannula. The carotid artery and jugular vein were cannulated to monitor blood pressure and heart rate and for drug administration, respectively. Throughout the experiment, the body temperature of the guinea pig was maintained at 37_. Measurements of pulmonary cardiac function were carried out as previously described (Hsu T H, Lai Y L, and Kou Y R (1998) Acetylcholine and tachykinin receptor antagonists attenuate wood smoke-induced bronchoconstriction in Guinea pigs. Eur J Pharmacol 360:175-183). Total lung resistance (RL) and dynamic lung compliance (Cdyn) were measured on a breath-by-breath basis using a computer equipped with an A/D interface (DAS 1600; Buxco Electronics, Inc., Wilmington, N.C.) and software (version 1.5.7; Buxco Electronics, Inc.). Results obtained from the computer analysis were checked for accuracy by comparison with those calculated manually.
Animals were allowed to stabilize for 10 min following surgical manipulations before the test agent was administered. Intratracheal instillation was performed using a catheter placed through the tracheal tube into the bronchial system. The catheter connected to a 1-ml syringe was inserted into the trachea cannula extending 1 cm beyond the tip of the cannula for instillation of drug or vehicle. The instillation was followed by rapid intratracheal injection of 0.5 ml of air to facilitate deposition of drug or vehicle into the lungs as in the modified methods of Chung et al. (2001)(Chung W H, Bennett B M, Racz W J, Brien J F, and […] Fischer 344 rats during aminodarone-induced pulmonary fibrosis. Am J Physiol 281:L1180-L1188). The animals were pretreated intratracheally with KMUP-3 (0.5, 1.0, and 2.0 mg/kg/150 _l of saline) or an equivalent volume (150 _l) of vehicle 15 min before TNF-_(0.01 mg/kg/300 _l saline) was instilled to induce acute bronchoconstriction. In another experiments, KMUP-3 or KMUP-1 (1.0 mg/kg i.v.) were used to compare the effects on respiratory performance, indicated by changes of tidal volume, total RL, and Cdyn.

The target of test [3] is T2, PDE3 purified from human platelets (Homo sapiens, UniProt Q14432).
T2 construct: PDE3 and PDE5 purified from human platelets; from tissue; host or cells: human platelets
As to the kind of experiment: Phosphodiesterase activity, PDE3. It is filed as biochemical. The settings on record: 10 _M compound, n = 3.
Method: PDE3 and PDE5 purified from human platelets and PDE4 purified from human U-937 pronocytic cells were used. Test compound (10 _M) or vehicle was incubated with 0.2 _g of enzyme and 1 _M cAMP containing 0.01 _M [^3H]cAMP in Tris buffer, pH 7.5, for 20 min at 25_. The reaction was terminated by boiling for 2 min, and the resulting cAMP was converted to adenosine by the addition of 10 mg/ml snake venom nucleotidase, which is followed by a further incubation at 37_for 10 min. Unhydrolyzed cAMP was bound to AG1-X2 resin, and the remaining [^3H]adenosine in the aqueous phase was quantitated by scintillation counting.

T2 sequence (Q14432 whole entry): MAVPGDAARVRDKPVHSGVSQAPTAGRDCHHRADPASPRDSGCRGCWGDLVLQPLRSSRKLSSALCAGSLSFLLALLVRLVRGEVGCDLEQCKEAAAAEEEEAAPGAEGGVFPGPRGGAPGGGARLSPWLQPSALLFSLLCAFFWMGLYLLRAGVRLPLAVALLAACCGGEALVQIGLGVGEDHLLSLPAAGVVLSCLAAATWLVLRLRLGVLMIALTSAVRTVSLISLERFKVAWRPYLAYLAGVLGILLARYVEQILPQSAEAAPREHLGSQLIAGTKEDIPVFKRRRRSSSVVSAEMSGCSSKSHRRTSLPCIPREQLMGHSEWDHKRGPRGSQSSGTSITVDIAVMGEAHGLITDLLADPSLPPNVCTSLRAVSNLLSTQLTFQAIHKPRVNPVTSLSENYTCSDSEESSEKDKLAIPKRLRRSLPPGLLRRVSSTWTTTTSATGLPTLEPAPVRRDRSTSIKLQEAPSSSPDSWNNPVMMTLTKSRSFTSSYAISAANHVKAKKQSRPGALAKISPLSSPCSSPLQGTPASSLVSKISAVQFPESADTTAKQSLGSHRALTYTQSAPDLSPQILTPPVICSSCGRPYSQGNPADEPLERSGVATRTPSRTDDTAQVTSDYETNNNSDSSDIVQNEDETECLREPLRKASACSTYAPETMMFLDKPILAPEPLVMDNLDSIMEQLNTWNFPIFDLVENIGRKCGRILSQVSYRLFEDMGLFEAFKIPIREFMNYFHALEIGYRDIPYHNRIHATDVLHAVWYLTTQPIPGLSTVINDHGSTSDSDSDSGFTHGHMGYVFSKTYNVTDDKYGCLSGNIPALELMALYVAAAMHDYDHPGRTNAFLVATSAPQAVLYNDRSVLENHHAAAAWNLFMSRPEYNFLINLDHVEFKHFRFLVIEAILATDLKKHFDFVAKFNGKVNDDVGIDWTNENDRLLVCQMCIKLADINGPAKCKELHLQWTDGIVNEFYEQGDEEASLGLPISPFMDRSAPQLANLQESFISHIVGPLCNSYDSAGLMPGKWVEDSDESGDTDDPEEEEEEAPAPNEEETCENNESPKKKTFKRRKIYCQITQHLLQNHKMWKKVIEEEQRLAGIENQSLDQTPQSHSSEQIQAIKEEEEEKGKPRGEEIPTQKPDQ

Take `Cn1c(=O)c2c(ncn2CCN2CCN(c3ccccc3Cl)CC2)n(C)c1=O` [KMUP-1, reference compound]: the “PDE5 Inhibition” value in test [1] was determined as 29 ± 2.5%. In test [2], the “PDE4 Inhibition” value amounted to 18 ± 2.3%. For the same compound, in the test with respiratory performance, the “Cdyn, Maximum change of baseline (%)” value stood at 35 ± 4.5%; the “RL, Maximum change of baseline (%)” value is −20 ± 3.5%; the “Tidal Volume, Maximum change of baseline (%)” value came to 2.8 ± 0.2%. Further, the PDE3 inhibition in test [3] was 23 ± 2.2%.
